Measured values: patent publication US11655225B2, “Antimycobacterial heterocyclic amides” (Crestone, Inc., priority 2018, dated 2023)
Values after ≈ are worked out from the molar mass of the structure shown.

Tested on: M. abscessus
Assay: MIC determination, CLSI M24-A
Assay type: cell-based
Settings: Mycobacteroides abscessus, CLSI M24-A

SMILES	MIC [µg/mL]
CC1CCC(C(=O)Nc2nc3ccc(OC(F)(F)F)cc3s2)C1 (stereo not drawn) [Example 102, 3-methyl-N-[6-(trifluoromethoxy)-1,3-benzothiazol-2-yl]cyclopentane-1-carboxamide]	2 to 32 (≈ 5.81 to 92.9 µM)
CC1(C(=O)Nc2nc3c(F)c(F)c(F)cc3s2)CCCCCC1 [Example 103, 1-methyl-N-(4,5,6-trifluoro-1,3-benzothiazol-2-yl)cycloheptane-1-carboxamide]	2 to 32 (≈ 5.84 to 93.5 µM)
CC1(C(=O)Nc2nc3ccc(OC(F)(F)F)cc3s2)CC2CCC1C2 (stereo not drawn) [Example 104, 2-methyl-N-[6-(trifluoromethoxy)-1,3-benzothiazol-2-yl]bicyclo[2.2.1]heptane-2-carboxamide]	2 to 32 (≈ 5.4 to 86.4 µM)
CC1(C(=O)Nc2cc3ccccc3s2)CCCCC1 [Example 105, N-(1-benzothiophen-2-yl)-1-methylcyclohexane-1-carboxamide]	2 to 32 (≈ 7.32 to 117 µM)
Cc1cc2nc(NC(=O)C3(C)CCCCC3)sc2c(C)c1Br [Example 106, N-(6-bromo-5,7-dimethyl-1,3-benzothiazol-2-yl)-1-methylcyclohexane-1-carboxamide]	2 to 32 (≈ 5.24 to 83.9 µM)
O=C(Nc1nc2ccc(Cl)cc2s1)C12CC3CC(CC(C3)C1)C2 [Example 107, N-(6-chloro-1,3-benzothiazol-2-yl)adamantane-1-carboxamide]	2 to 32 (≈ 5.77 to 92.3 µM)
O=C(Nc1nc2ccc(OC(F)F)cc2s1)C1CCCCCCC1 [Example 108, N-[6-(difluoromethoxy)-1,3-benzothiazol-2-yl]cyclooctanecarboxamide]	2 to 32 (≈ 5.64 to 90.3 µM)
O=C(Nc1nc2c(F)cc(F)cc2s1)C1CCCCCCC1 [Example 109, N-(4,6-difluoro-1,3-benzothiazol-2-yl)cyclooctanecarboxamide]	2 to 32 (≈ 6.17 to 98.6 µM)
O=C(Nc1nc2ccc(Cl)cc2s1)C1CCCCCCC1 [Example 110, N-(6-chloro-1,3-benzothiazol-2-yl)cyclooctanecarboxamide]	2 to 32 (≈ 6.19 to 99.1 µM)
CCOc1ccc2nc(NC(=O)C34CC5CC(C)(CC(C)(C5)C3)C4)sc2c1 [Example 111, N-(6-ethoxy-1,3-benzothiazol-2-yl)-3,5-dimethyladamantane-1-carboxamide]	2 to 32 (≈ 5.2 to 83.2 µM)
CC12CC3CC(C)(C1)CC(C(=O)Nc1nc4cc(Cl)c(Cl)cc4o1)(C3)C2 [Example 112, N-(5,6-dichloro-1,3-benzoxazol-2-yl)-3,5-dimethyladamantane-1-carboxamide]	2 to 32 (≈ 5.08 to 81.4 µM)
CC1CC(C(=O)Nc2nc3cc(Cl)c(Cl)cc3o2)CC(C)(C)C1 (stereo not drawn) [Example 113, N-(5,6-dichloro-1,3-benzoxazol-2-yl)-3,3,5-trimethylcyclohexane-1-carboxamide]	2 to 32 (≈ 5.63 to 90.1 µM)
CC1CC(C(=O)Nc2nc3cc(Cl)ccc3o2)CC(C)(C)C1 (stereo not drawn) [Example 114, N-(5-chloro-1,3-benzoxazol-2-yl)-3,3,5-trimethylcyclohexane-1-carboxamide]	2 to 32 (≈ 6.23 to 99.7 µM)
CC12CC3CC(C)(C1)CC(C(=O)Nc1nc4ccc(Br)cc4o1)(C3)C2 [Example 115, N-(6-bromo-1,3-benzoxazol-2-yl)-3,5-dimethyladamantane-1-carboxamide]	2 to 32 (≈ 4.96 to 79.3 µM)
O=C(Nc1nc2c(F)c(F)c(F)cc2s1)C1CCCCCCC1 [Example 116, N-(4,5,6-trifluoro-1,3-benzothiazol-2-yl)cyclooctanecarboxamide]	2 to 32 (≈ 5.84 to 93.5 µM)
CC12CC3CC(C)(C1)CC(C(=O)Nc1nc4ccc(Cl)cc4o1)(C3)C2 [Example 117, N-(6-chloro-1,3-benzoxazol-2-yl)-3,5-dimethyladamantane-1-carboxamide]	2 to 32 (≈ 5.57 to 89.2 µM)
CC1CC(C(=O)Nc2nc3ccc(Cl)cc3o2)CC(C)(C)C1 (stereo not drawn) [Example 118, N-(6-chloro-1,3-benzoxazol-2-yl)-3,3,5-trimethylcyclohexane-1-carboxamide]	2 to 32 (≈ 6.23 to 99.7 µM)
CC12CC3CC(C)(C1)CC(C(=O)Nc1nc4cc(F)c(F)cc4[nH]1)(C3)C2 [Example 119, N-(5,6-difluoro-1H-1,3-benzodiazol-2-yl)-3,5-dimethyladamantane-1-carboxamide]	2 to 32 (≈ 5.56 to 89 µM)
